Source: US20170052177A1, “COMPETITION ASSAY” (PharmaDiagnostics NV, priority 2014, published 2017)
Ends that are not written are not given here.

Tests used:
[1] = biological target: Neutravidin (Gallus gallus, UniProt P02701); test: LSPR competition assay: Neutravidin pre-incubated with HABA or biotin, then biotin-GNR conjugate; type: binding; conditions: for ΔRU as a function of the HABA and biotin concentration: fixed Neutravidin, biotin-GNR conjugate, final DMSO 5 w %, increasing concentration of added compound (FIG. 2)
Chain of Neutravidin (P02701 25-152): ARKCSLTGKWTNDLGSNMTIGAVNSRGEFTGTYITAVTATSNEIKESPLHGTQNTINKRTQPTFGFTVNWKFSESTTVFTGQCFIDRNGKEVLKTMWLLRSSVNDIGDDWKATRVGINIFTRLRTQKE
From the text: Gold nanorods (GNRs) which are coated with mercaptoundecanoic acid (MUDA) were provided in suspension. The MUDA-coated GNRs provide an outer layer of carboxyl functional groups on their surface. For the conjugation of biotin to the GNRs, a biotin derivative (amino-PEG4-biotin) was used containing a polyethyleneglycol linker (4 monomers) having an amino functional group. More particularly, the carboxyl groups on the GNRs were activated using ethyl(dimethylaminopropyl) carbodiimide (EDC) and N-hydroxysuccinimide (NHS). Then, amino-PEG4-biotin was coupled via its amino functional group to the carboxyl groups provided on the GNRs, thereby providing a biotin-GNR conjugate. Potentially remaining unreacted carboxylic acid groups were blocked via reaction with 2-(2-aminoethoxy)ethanol (AEE). The biotin-GNR conjugate was purified from unreacted EDC, NHS, amino-PEG4-biotin and AEE by buffer exchange using a centrifugal ultrafiltration device.
The determination of the inhibition of the interaction between HABA and Neutravidin according to the methods described herein involves contacting the biotin-GNR conjugate with Neutravidin. The optimal amount of Neutravidin to be contacted with the conjugate was determined via titration. More particularly, a fixed amount of biotin-GNR was incubated with various concentrations of Neutravidin, and the absorbance spectra after incubation was recorded. ΔRU was calculated and plotted as a function of the Neutravidin concentration (FIG. 1). Suitable Neutravidin concentrations are determined as those concentrations which are sufficiently high to provide a detectable signal (ΔRU), provided that the signal is not in the plateau of the dose-response curve. Optimal concentrations are those providing a signal in the linear response range.
A fixed amount of Neutravidin was pre-incubated with different concentrations of HABA and biotin, followed by incubation with a fixed amount of biotin-GNR conjugate. HABA was provided as a solution in DMSO. […] The relative amounts of biotin-GNR and Neutravidin used are determined via titration as described above (A2). […]

[2] = biological target: MDM2 (Homo sapiens, UniProt Q00987); test: LSPR competition assay: MDM2 pre-incubated with nutlin-3 or p53, then p53-GNR conjugate; type: binding; conditions: fixed MDM2, p53-GNR conjugate; increasing concentration of added compound (FIGS. 4A and 4B)
Chain of MDM2 (Q00987 whole entry, species assumed): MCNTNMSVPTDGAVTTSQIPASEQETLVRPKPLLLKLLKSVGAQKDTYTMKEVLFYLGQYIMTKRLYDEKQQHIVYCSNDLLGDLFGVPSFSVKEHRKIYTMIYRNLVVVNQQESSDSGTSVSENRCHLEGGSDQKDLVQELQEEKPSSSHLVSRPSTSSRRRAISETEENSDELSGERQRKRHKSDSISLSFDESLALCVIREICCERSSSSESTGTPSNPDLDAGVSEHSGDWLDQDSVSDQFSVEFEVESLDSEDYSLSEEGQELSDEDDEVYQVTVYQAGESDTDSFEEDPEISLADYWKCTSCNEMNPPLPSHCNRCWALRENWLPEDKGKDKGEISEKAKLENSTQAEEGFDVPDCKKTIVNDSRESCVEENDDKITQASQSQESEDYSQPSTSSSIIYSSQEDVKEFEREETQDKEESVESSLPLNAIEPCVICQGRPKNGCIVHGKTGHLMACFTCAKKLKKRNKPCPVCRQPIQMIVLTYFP
Description: The determination of the inhibition of the interaction between MDM2 and p53 according to the methods described herein involves contacting the p53-GNR conjugate with MDM2. The optimal amount of MDM2 to be contacted with the conjugate was determined via a similar titration experiment as described above for Neutravidin (A2). ΔRU was calculated and plotted as a function of the MDM2 concentration (FIG. 3).

For O=C(O)c1ccccc1N=Nc1ccc(O)cc1 [HABA, (2-(4-hydroxyazobenzene)benzoic acid)], the “ΔRU as a function of the HABA and biotin concentration” value [1] was “ΔRU decreases” and the “relative affinity to Neutravidin” value ([1]; from concentration needed for significant reduction of ΔRU (FIG. 2)) was “lower affinity to Neutravidin than biotin”.
With “p53: p53 peptide (Sequence: CGSGSGSGSGSRFMDYWEGL); p53 protein also known as cellular tumor antigen p53 (also: conjugated to gold nanorods, site not given here)” the “ΔRU as a function of the added amount of nutlin-3 and p53” value [2] was “ΔRU decreases”.
For O=C(O)CCCC[C@@H]1SC[C@@H]2NC(=O)N[C@@H]21 [biotin], the “ΔRU as a function of the HABA and biotin concentration” value [1] was “ΔRU decreases”.
